Results as given in the CheMixHub viscosity set.
± gives the uncertainty stated by the source.

Assay: xn = mol fraction of the nth substance listed

CCNCC + O
297.65 K, 101.33 kPa
Settings | viscosity [mPa·s]
x1 = 0.0033 | 0.928 ± 0.011
x1 = 0.0087 | 1.051 ± 0.011
x1 = 0.0165 | 1.24 ± 0.013
x1 = 0.023 | 1.405 ± 0.014
x1 = 0.0271 | 1.508 ± 0.014
x1 = 0.0342 | 1.691 ± 0.016
x1 = 0.0458 | 1.985 ± 0.017
x1 = 0.0592 | 2.305 ± 0.02
x1 = 0.0733 | 2.604 ± 0.022
x1 = 0.0885 | 2.863 ± 0.023
x1 = 0.104 | 3.037 ± 0.025
x1 = 0.1203 | 3.096 ± 0.025
x1 = 0.1385 | 3.121 ± 0.025

COCCOCCOCCOC + O
viscosity [mPa·s], 101.33 kPa
Settings | 298 K | 298.15 K
x1 = 0.0057 | – | 1.058 ± 0.008
x1 = 0.0077 | 1.15 ± 0.03 | –
x1 = 0.0124 | – | 1.278 ± 0.008
x1 = 0.0143 | 1.38 ± 0.036 | –
x1 = 0.0176 | – | 1.444 ± 0.009
x1 = 0.0247 | – | 1.737 ± 0.011
x1 = 0.0255 | 1.83 ± 0.048 | –
x1 = 0.0326 | – | 2.063 ± 0.013
x1 = 0.0455 | – | 2.613 ± 0.015
x1 = 0.0484 | 2.79 ± 0.073 | –
x1 = 0.0673 | – | 3.462 ± 0.02
x1 = 0.0796 | 3.89 ± 0.1 | –
x1 = 0.0814 | 3.95 ± 0.1 | –
x1 = 0.0826 | – | 4.032 ± 0.022
x1 = 0.0934 | 4.25 ± 0.11 | –
x1 = 0.1017 | – | 4.344 ± 0.024
x1 = 0.1022 | 4.4 ± 0.12 | –
x1 = 0.1092 | 4.49 ± 0.12 | –
x1 = 0.1166 | 4.6 ± 0.12 | –
x1 = 0.1215 | – | 4.581 ± 0.025
x1 = 0.1407 | 4.68 ± 0.12 | –
x1 = 0.1423 | – | 4.678 ± 0.026
x1 = 0.1607 | – | 4.625 ± 0.026
x1 = 0.1731 | 4.63 ± 0.12 | –
x1 = 0.1907 | – | 4.512 ± 0.025
x1 = 0.2117 | 4.39 ± 0.11 | –
x1 = 0.2288 | – | 4.179 ± 0.023
x1 = 0.2745 | 3.87 ± 0.1 | 3.819 ± 0.021
x1 = 0.3074 | – | 3.588 ± 0.02
x1 = 0.3483 | 3.29 ± 0.086 | –
x1 = 0.3653 | – | 3.236 ± 0.018
x1 = 0.4097 | – | 3.035 ± 0.017
x1 = 0.4311 | 2.9 ± 0.076 | –
x1 = 0.4857 | – | 2.706 ± 0.016
x1 = 0.5899 | 2.41 ± 0.063 | –
x1 = 0.593 | – | 2.398 ± 0.014
x1 = 0.6382 | – | 2.311 ± 0.014
x1 = 0.702 | – | 2.269 ± 0.014
x1 = 0.745 | 2.16 ± 0.056 | –
x1 = 0.7475 | – | 2.22 ± 0.013
x1 = 0.7813 | – | 2.166 ± 0.013
x1 = 0.7839 | 2.1 ± 0.055 | –
x1 = 0.8141 | – | 2.121 ± 0.013
x1 = 0.8687 | 2.04 ± 0.053 | –
x1 = 0.8937 | – | 2.068 ± 0.013
x1 = 0.9665 | – | 2.035 ± 0.013

O=S(=O)([O-])NC1CCCCC1.[K+] + O
viscosity [mPa·s], 101 kPa
Settings | x1 = 0.0007156 | x1 = 0.001095 | x1 = 0.001452 | x1 = 0.001751 | x1 = 0.002086 | x1 = 0.002528 | x1 = 0.002966 | x1 = 0.003212 | x1 = 0.003506 | x1 = 0.003747
293.15 K | 1.021 ± 0.0068 | 1.031 ± 0.0069 | 1.041 ± 0.0069 | 1.049 ± 0.007 | 1.058 ± 0.007 | 1.072 ± 0.0071 | 1.085 ± 0.0072 | 1.091 ± 0.0072 | 1.101 ± 0.0073 | 1.107 ± 0.0073
298.15 K | 0.9071 ± 0.0062 | 0.9163 ± 0.0062 | 0.9245 ± 0.0063 | 0.9318 ± 0.0063 | 0.9397 ± 0.0063 | 0.9515 ± 0.0064 | 0.9626 ± 0.0065 | 0.9683 ± 0.0065 | 0.9765 ± 0.0065 | 0.982 ± 0.0066
303.15 K | 0.8126 ± 0.0056 | 0.8204 ± 0.0056 | 0.8278 ± 0.0057 | 0.8343 ± 0.0057 | 0.8412 ± 0.0057 | 0.8514 ± 0.0058 | 0.8611 ± 0.0059 | 0.866 ± 0.0059 | 0.873 ± 0.0059 | 0.8778 ± 0.0059
313.15 K | 0.6648 ± 0.0047 | 0.6714 ± 0.0047 | 0.6773 ± 0.0048 | 0.6823 ± 0.0048 | 0.6878 ± 0.0048 | 0.6957 ± 0.0049 | 0.7032 ± 0.0049 | 0.7073 ± 0.0049 | 0.7127 ± 0.005 | 0.7164 ± 0.005
323.15 K | 0.5565 ± 0.0041 | 0.5615 ± 0.0041 | 0.5663 ± 0.0041 | 0.5703 ± 0.0041 | 0.5748 ± 0.0042 | 0.5809 ± 0.0042 | 0.5873 ± 0.0042 | 0.5902 ± 0.0042 | 0.5948 ± 0.0043 | 0.5977 ± 0.0043

O=S(=O)([O-])NC1CCCCC1.[Li+] + O
viscosity [mPa·s], 101 kPa
Settings | x1 = 0.002028 | x1 = 0.002453 | x1 = 0.00294 | x1 = 0.003377 | x1 = 0.003805 | x1 = 0.004126 | x1 = 0.00489
293.15 K | 1.078 ± 0.0072 | 1.095 ± 0.0073 | 1.115 ± 0.0074 | 1.133 ± 0.0075 | 1.151 ± 0.0076 | 1.164 ± 0.0077 | 1.197 ± 0.0079
298.15 K | 0.956 ± 0.0064 | 0.9707 ± 0.0065 | 0.9874 ± 0.0066 | 1.002 ± 0.0067 | 1.018 ± 0.0068 | 1.029 ± 0.0069 | 1.058 ± 0.007
303.15 K | 0.8547 ± 0.0058 | 0.8675 ± 0.0059 | 0.8819 ± 0.006 | 0.8949 ± 0.0061 | 0.9081 ± 0.0061 | 0.9174 ± 0.0062 | 0.9409 ± 0.0063
313.15 K | 0.6978 ± 0.0049 | 0.7075 ± 0.0049 | 0.7186 ± 0.005 | 0.7288 ± 0.0051 | 0.739 ± 0.0051 | 0.7458 ± 0.0052 | 0.7652 ± 0.0053
323.15 K | 0.5823 ± 0.0042 | 0.5898 ± 0.0042 | 0.5985 ± 0.0043 | 0.6067 ± 0.0043 | 0.6147 ± 0.0044 | 0.6202 ± 0.0044 | 0.6355 ± 0.0045
